Series [1] concerns NF-κB activation in HEK293T pGF NF-κB cells. Kind of series: TNF-α induced NF-κB activation assay. It counts as cell-based. The conditions noted are these: Homo sapiens, HEK-293T; NFκB activation assay; ± SD; read-out: pEC50 (converted). As to the method:
The inhibition of TNF-α induced NF-κB activation was measured in HEK293T cells transfected with the pGreenfire NF-κB plasmid. This is a plasmid that has NF-κB response elements (TRE) coupled to GFP and luciferase expression. When the NF-κB is activated by TNF-α, it binds to the TRE and induces GFP expression, and the fluorescence can be measured in a plate reader. The cells were authenticated with STR profiling, frozen down and these stocks were used in experiments. The HEK293T pGF NF-κB cells were kept in DMEM with 5% FBS and 1% P/S but, when seeded for the assay the medium was changed to DMEM FluoroBrite with 1% dialyzed FBS. All cell culture reagents were purchased from Thermo Fisher Scientific. Compounds were nano-dispensed (Echo acoustic dispenser) in 96-well, black/clear, assay plates (Corning #3904), duplicate plates, in 8-points dose-response curves, 1:2 dilutions, with DMSO compensation (0.3% DMSO). Cells were seeded at 30000 cells/well in medium containing 10 ng/mL of TNF-α (Sigma-Aldrich), except negative control wells which only contained cells in medium. Cells were cultured for 24 hours in a humidified incubator at 37 °C with 5% CO2 after which the GFP fluorescence was measured in a Sense plate reader (Hidex) with ex485/em535. The RFU data from the duplicate plates were combined to calculate % inhibition of NF-κB activation and IC50-values were calculated using XLfit (IDBS). In parallel with the NF-κB assay, a CellTiterGlo (Promega) cell viability assay was run to exclude compounds affecting cell viability. Compounds were nano-dispensed (Echo acoustic dispenser) in assay plates in 11-points dose-response curves, 1:3 dilutions, without DMSO compensation, with duplicates on the same plate. Cells were seeded at 7500 cells/well in 25 µL medium (DMEM FluoroBrite with 1% dialyzed FBS) containing 10 ng/mL TNF-α and cultured for 24 hours, with column 24 containing only culture medium. After equilibration to room temperature, the CellTiterGlo reagents were mixed and 25 µL/well were added to the cell plate. After 2 min mixing of the plate on an orbital shaker, the plate was incubated for 10 min at room temperature followed by luminescence reading in Sense. The cell viability was calculated compared to untreated control wells and the EC50 values were determined in XLfit (IDBS). […]

The target of series [2] is T1, human OGG1 enzyme (Homo sapiens, UniProt O15527). Kind of series: OGG1 glycosylase activity assay (enzyme inhibition, APE1-coupled fluorescence). It counts as biochemical.
T1 sequence (O15527 whole entry): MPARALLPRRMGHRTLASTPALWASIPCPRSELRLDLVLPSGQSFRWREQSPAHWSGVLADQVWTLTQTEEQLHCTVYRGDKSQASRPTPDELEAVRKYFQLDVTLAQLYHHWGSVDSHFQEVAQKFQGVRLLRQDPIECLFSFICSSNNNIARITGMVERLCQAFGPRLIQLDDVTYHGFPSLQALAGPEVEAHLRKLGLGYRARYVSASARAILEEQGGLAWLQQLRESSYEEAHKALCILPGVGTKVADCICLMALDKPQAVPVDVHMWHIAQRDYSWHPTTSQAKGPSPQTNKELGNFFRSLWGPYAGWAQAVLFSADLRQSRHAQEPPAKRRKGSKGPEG
Series [3] has as its target T1, human OGG1 enzyme. Kind of series: Differential scanning fluorimetry (DSF) thermal shift assay. It is filed as binding. Conditions: 99 μM. Here is the method:
The temperature was increased from 20 °C to 85 °C with 10 readings/degree. Tm values were calculated using an excel template and fitting to the Boltzmann equation in Prism v.6.07 (GraphPad Software).
For orientation: DSF heats the sample and reads unfolding from a dye or from intrinsic fluorescence.

In series [4] the target is MTH1 (Homo sapiens, UniProt P36639). Kind of series: biochemical.
Protocol: Inhibition of the following enzymes was assessed in the selectivity assays: apurinic/apyrimidinic endonuclease (APE1), endonuclease 8-like 1 (NEIL1), oxidized purine nucleoside triphosphate hydrolase (MTH1) and single-strand selective monofunctional uracil DNA glycosylase (SMUG1). BER enzymes were assayed with a similar strategy as OGG1, using identical DNA sequences surrounding the substrate lesion and the same reaction buffer containing 2 nM APE1. To assess SMUG1 inhibition, a 375 nM substrate containing uracil opposite guanine and 0.3 U SMUG1 enzyme (M0336 from New England Biolabs) was used. To assess NEIL1 inhibition, a 20 nM substrate containing thymidine glycol opposite adenine and 10 nM NEIL1 was used. To assess APE1 inhibition, an UNG2 substrate was pre-treated with E. coli Uracil-DNA glycosylase (New England Biolabs M0280) to generate an AP-site opposite adenine, which was used at 10 nM concentration in the presence of 0.1 nM APE1. All BER inhibition assays were in the linear range and less than 40% of the total substrate had been consumed at readout. The experiments were performed in three independent replicates and the percentage inhibition was calculated relative to the signal of a DMSO-treated control. To assess MTH1 inhibition, MTH1-catalyzed dGTP hydrolysis was coupled to inorganic pyrophosphatase (PPase), thereby releasing inorganic phosphate. The produced free phosphate was then detected using the malachite green assay[76]. […] Substrate concentration at the Km value for the respective substrate was chosen if possible. Inhibition using 100 μM compound was tested in reaction buffer (100 mM Tris-Acetate pH 8.0, 10 mM magnesium acetate, 40 mM NaCl, 1 mM DTT, and 0.005% Tween-20). Samples were incubated with shaking at 22 °C for 15 minutes. The reaction was then stopped by the addition of the malachite green reagent[76]. Absorbance was read at 630 nm using a Hidex Sense plate reader after a period of incubation with the methylene green reagent of 15 minutes. The experiment was performed in three independent replicates and percentage inhibition was calculated relative to the signal of a DMSO-treated control.
The subject of series [5] is HCT116 cells. Kind of series: Cancer cell viability assay (resazurin), HCT116. Conditions: two independent experiments; for percentage cell viability: HCT116, 100 μM, 100 µM; for viability at 100 µM: Homo sapiens, HCT-116, HCT116, 100 μM, read-out: percentage cell viability. It is filed as cell-based. Here is the method: (§1) Three different cancer cell lines A2780 (ovarian cancer, ECACC 93112519), A549 (lung cancer, ATCC 60150896) and HCT116 (colon cancer, ATCC CCL-247), and one immortalized fibroblast cell line (BJhTERT) as control, were seeded in black/clear 384-well plates (Corning #3764), 50 µL/well, containing 11 concentrations, nano-dispensed, dose-response curves of the test compounds. A2780, HCT116, and HEK293T cell lines were authenticated with STR profiling, frozen down, and these stocks were used in experiments. The A2780 cells were cultured in RPMI 1640, the A549 and BJhTERT cells in DMEM, and the HCT116 cells in McCoys 5 A medium. All media were supplemented with 10% FBS and 1% P/S. All cell culture media, additives, and reagents were purchased from Thermo Fisher Scientific. The cell plates were incubated 72 hours in a humidified incubator at 37 °C with 5% CO2, after which resazurin (Sigma-Aldrich), 10 µL/well, was added to a final concentration of 10 µg/mL. The plates were incubated for 6 hours with resazurin followed by fluorescence readings in a Sense plate reader (Hidex), resorufin protocol (ex 544 nm/em 595 nm). The cell viability was calculated compared to untreated control wells and the EC50 values were determined in XLfit (IDBS).
A general note: Resazurin is reduced to fluorescent resorufin, in cell work by metabolically active cells.

The test system of series [6] is A2780 cells. Kind of series: Cancer cell viability assay (resazurin), A2780. The conditions noted are these: two independent experiments; for percentage cell viability: A2780, 100 μM, 100 µM; for viability at 100 µM: Homo sapiens, A2780, A2780, 100 μM, read-out: percentage cell viability. It counts as cell-based. Here is the method:
as §1

Series [7] deals with A549 cells. Kind of series: Cancer cell viability assay (resazurin), A549. It counts as cell-based. Conditions: two independent experiments; for percentage cell viability: A549, 100 μM, 100 µM; for viability at 100 µM: Homo sapiens, A549, A549, 100 μM, read-out: percentage cell viability. As to the method: as §1
Series [8] is described as follows: Cell viability assay (resazurin), BJhTERT non-transformed control. It counts as cell-based. The conditions noted are these: human, BJhTERT, 100 μM, two independent experiments; read-out: percentage cell viability. Here is the method:
(§2) A2780, HCT116, and HEK293T cell lines were authenticated with STR profiling, frozen down, and these stocks were used in experiments. […] All media were supplemented with 10% FBS and 1% P/S. All cell culture media, additives, and reagents were purchased from Thermo Fisher Scientific. The cell plates were incubated 72 hours in a humidified incubator at 37 °C with 5% CO2, after which resazurin (Sigma-Aldrich), 10 µL/well, was added to a final concentration of 10 µg/mL. […] The cell viability was calculated compared to untreated control wells and the EC50 values were determined in XLfit (IDBS).

Series [9] concerns BJhTERT cells. The description is as above. It is filed as cell-based. The conditions noted are these: BJhTERT, 100 μM, two independent experiments. Here is the method:
as §2

Setting [10] is: Figure 3B source data, three independent experiments, read-out: IC50 OGG1.
The mark [11] stands for this setting: Table S5, ± SD, read-out: pIC50 (converted).

Values joined by “and” are separate entries in the source; they are usually repeats but may differ in a detail not shown here. Equal entries are not always repeated. Where two headings read alike, the source gives them in different places.

The term viability denotes a per cent measure of how many cells are alive, often set against a control.

On to `Cc1nc(-c2ccc(CC(=O)Nc3noc4c3CCCC4)cc2F)c(C)[nH]1` [compound 18], for which, in [1], the EC50 is 11.7 µM. The IC50 in series [2] (setting [10]) is 0.589 µM and 0.638 µM and 0.615 µM; in series [2] (setting [11]) it was 0.832 µM; in [4], 18.4 µM and 20 µM and 18.5 µM. Further, the “∆Tm (K)” value in series [3] is reported as 7.8 K. The percentage cell viability came out at 53.92% in [5], 4.22% in series [6], 56.99% in [7] and 41.01% in [9]. For the same compound, the viability at 100 µM came out at 45.2% in [5], 3.84% in [6] and 53.3% in series [7]. Besides, the viability at 72 h, 100 µM in series [8] came out at 38.1%.

Take `Cc1cc(C2CC2)n(-c2ccc(CC(=O)Nc3noc4c3CCCC4)cc2)n1` [compound 9]: the EC50 in series [1] is 9.12 µM. The IC50 in series [2] (setting [10]) was 6.28 µM and 6.2 µM and 6.46 µM; in [2] (setting [11]) it was 3.72 µM. The “∆Tm (K)” value in series [3] came to 6.6 ± 0.6 K. The percentage cell viability is on record as 86.44% in series [5], 25.03% in [6], 68.3% in series [7] and 80.1% in series [9]. For the same compound, the results for the viability at 100 µM in [5], in [6] and in [7] were 81.6%, 21.5% and 68.1%, respectively. In [8], the viability at 72 h, 100 µM worked out at 73%.

Regarding `Cc1nc(-c2ccc(CC(=O)Nc3noc4c3CCCC4)c(F)c2)c(C)[nH]1` [compound 20], the EC50 in series [1] is 20.4 µM. Also, in series [2] (setting [11]), the IC50 was 0.741 µM. In series [3], the “∆Tm (K)” value worked out at 8.6 ± 0.5 K. Besides, the percentage cell viability is reported as 15.72% in series [5], 2.93% in [6], 35.78% in [7] and 24.23% in [9]. Also, the viability at 100 µM stood at 13% in [5], 2.84% in series [6] and 35% in series [7]. Also, the viability at 72 h, 100 µM in series [8] turned out to be 23.9%.

The record behind these values is publication PMC11836371, “Virtual fragment screening for DNA repair inhibitors in vast chemical space” (Nature Communications, 2025).
